Values of other authors in patent publication US7879374B2, “Composition including superoxide dismutase and prickly-pear cactus for minimizing and preventing hangovers” (priority 2005, dated 2011).

Experiments:
[1] = by speeding the use of fat during exercise
[2] = rat, in vivo, po
[3] = test system: hepatic metabolizing enzymes for lipids and alcohol
[4] = recent study of one-hundred twenty young females
[5] = liver of rats given sesamin vs vehicle

Structure (SMILES): Cn1c(=O)c2c(ncn2C)n(C)c1=O [Caffeine]
- increase in endurance [1]: about fifteen

Structure (SMILES): c1cc2c(cc1[C@H]1OC[C@H]3[C@@H]1CO[C@@H]3c1ccc3c(c1)OCO3)OCO2 [Sesamin]
- dose of sesamin detected in bile as glucuronides of catechol metabolites [2]: Over 40 % of the dose
- gene expression levels of the late stage enzymes of beta-oxidation (trifunctional enzyme, acyl-CoA oxidase, bifunctional enzyme, 3-ketoacyl-CoA thiolase) [3, 5]: significantly increased
- gene expression of alcohol dehydrogenase [3, 5]: not changed
- gene expression of aldehyde dehydrogenase [3, 5]: about 3 fold
- gene expression of liver catalase [3, 5]: not changed
- transcription of the genes encoding the enzymes for fatty acid synthesis [3, 5]: decreased
- gene expression of CYP2E1 ([3]; rat, in vivo): not changed

Structure (SMILES): Cc1ncc(C[n+]2csc(CCO)c2C)c(N)n1 [Thiamin]
- effects on mood and cognitive functioning [4]: positive effects
